Source: US6610744B2, “Methods of treatment with compounds having RARα receptor specific or selective activity” (Allergan, Inc., priority 1995, dated 2003)
Values after ≈ are worked out from the molar mass of the structure shown.

Tests used:
RXRΓ = molecular target: T1, RXRΓ (Homo sapiens, UniProt P48443); experiment: Ligand binding assay, RXRΓ
T1 construct: made in house; host or cells: Baculovirus expression (insect cell extract)
T1 sequence (P48443 1-463): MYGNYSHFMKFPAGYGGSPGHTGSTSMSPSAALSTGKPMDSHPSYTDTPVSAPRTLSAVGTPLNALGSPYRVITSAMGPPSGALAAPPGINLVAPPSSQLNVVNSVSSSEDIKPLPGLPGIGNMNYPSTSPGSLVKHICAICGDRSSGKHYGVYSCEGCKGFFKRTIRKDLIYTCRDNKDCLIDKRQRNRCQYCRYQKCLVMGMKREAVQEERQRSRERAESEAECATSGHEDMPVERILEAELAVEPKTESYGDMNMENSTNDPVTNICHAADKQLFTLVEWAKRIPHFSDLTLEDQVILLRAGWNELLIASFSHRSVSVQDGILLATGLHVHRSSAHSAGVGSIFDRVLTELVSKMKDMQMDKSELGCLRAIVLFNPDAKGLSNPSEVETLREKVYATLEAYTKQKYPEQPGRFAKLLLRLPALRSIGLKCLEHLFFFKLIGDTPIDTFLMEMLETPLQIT
Description: All binding assays were performed in a similar fashion. All six receptor types were derived from the expressed receptor type (RARα, β, Γ and RXRα, β, Γ) expressed in Baculovirus. Stock solutions of all compounds were prepared as 10 mM ethanol solutions and serial dilutions carried out into 1:1 DMSO; ethanol. Assay buffers consisted of the following for all six receptor assays: 8% glycerol, 120 mM KCl 8 mM Tris, 5 mM CHAPS 4 mM DTT and 0.24 mM PMSF, pH-7.4@ room temperature.
All receptor binding assays were performed in the same manner. The final assay volume was 250 μl and contained from 10-40 μg of extract protein depending on receptor being assayed along with 5 nM of [^3H] all-trans retinoic acid or 10 nM [^3H] 9-cis retinoic acid and varying concentrations of competing ligand at concentrations that ranged from 0-10^−5 M. The assays were formatted for a 96 well minitube system. Incubations were carried out at 4° C. until equilibrium was achieved. Non-specific binding was defined as that binding remaining in the presence of 1000 nM of the appropriate unlabeled retinoic acid isomer. At the end of the incubation period, 50 μl of 6.25% hydroxyapitite was added in the appropriate wash buffer. The wash buffer consisted of 100 mM KCl, 10 mM Tris and either 5 mM CHAPS (RXRα, β, Γ) or 0.5% Triton X-100 (RARα, β, Γ). The mixture was vortexed and incubated for 10 minutes at 4° C., centrifuged and the supernatant removed. The hydroxyapitite was washed three more times with the appropriate wash buffer. The receptor-ligand complex was adsorbed by the hydroxyapitite. The amount of receptor-ligand complex was determined by liquid scintillation counting of hydroxyapitite pellet.
After correcting for non-specific binding, IC50 values were determined. […] The IC50 value was determined graphically from a loglogit plot of the data. The […] were determined by application of the Cheng-Prussof equation to the IC50 values, the labeled ligand concentration and the Kd of the labeled ligand.
The results of ligand binding assay are expressed in Kd numbers. (See Cheng et al. Biochemical Pharmacology Vol. 22 pp 3099-3108, expressly incorporated herein by reference.)

[1] = system: retinal pigment epithelium (RPE) cells; experiment: Primary RPE culture proliferation; format: cell-based, human; conditions: FIG. 5; 10^−10 to 10^−6 M, six days treatment
Description: Primary cultures of human retinal pigment epithelium (RPE) were established from eyes as previously described, (Campochiaro et al., Invest. Opthal & Vis. Sci. 32:65-72 (1991)). 5×10^4 Cells were plated in 16-mm wells of 24-well multiwell plates in Dulbecco's modified Eagle's medium (DMEM Gibco) containing 10% fetal bovine serum (FBS). Cells were treated with ethanol alone (control), ATRA (10^−10 to 10^−6 M) in ethanol, and Compound 42 (10^−10 to 10^−6 M) in ethanol. Cells were fed with fresh media containing the appropriate concentrations of these compounds every two days for a total of six days treatment. Cells were removed from the plates via treatment with trypsin and the number of cells were counted with an electronic cell counter.

[2] = system: limb bud mesenchymal cells; experiment: Chondrogenesis suppression bioassay (teratogenic potency); format: cell-based; conditions: read-out: IC50 (50% inhibition of chondrogenesis); mouse limb bud spot cultures, 96 hours after plating; greater IC50 signifies lesser teratogenecity
Description: High-density “spot” cultures of limb bud mesenchymal cells are used to compare the ability of various concentrations of test drugs to suppress chondrogenic differentiation as a bioassay. Forelimb buds of mouse embryos on day 12 of gestation (54±2 somites) are dissociated in a trypsin-EDTA solution, and the resultant single-cell suspension is plated as 20-μl spots (200,000 cells/spot) on plastic culture dishes. Retinoid concentrations ranging from 0.3 ng/ml to 3 μg/ml (1 nM−10 μM) are added to the culture medium (Eagle's MEM±10% fetal bovine serum, GIBCO) 24 hours after initial plating. Control cultures receive only the vehicle (ethanol, concentration≦1% by vol); Retinoic acid is used as a positive control in another set of cultures.
The cultures are terminated 96 hours after plating, at which time the medium is removed and the cells are fixed for 1 hour in 10% formalin containing 0.5% cetylpyridinium chloride. The cultures are rinsed in acetic acid and stained for 1 hour in 0.5% Alcian blue solution at pH 1.0, differentiated in 3% acetic acid, and then dehydrated in ethanol and scored for chondrogenesis under the microscope. An absence or reduction in the number of cartilage nodules in stained cultures as compared with control cultures is taken as a measure of suppression of chondrogenesis. The number of cartilage nodules stained in the whole spot, mean number of nodules, and standard deviations are calculated for four replicate cultures per treatment. […] The IC50 values are expressed in nanogram per mililiter (ng/ml) units. An IC50 value of greater concentration in this assay signifies lesser teratogenecity.

[3] = Weight loss in rats treated for 3 days; format: in vivo, rat
Description: Weight loss or gain that experimental animals experience upon administration of retinoid compounds is another test of the drug's toxicity, with significant weight loss at relatively low doses indicating a significant toxic side effect of the retinoid. In one experiment, groups of 5 rats were treated with varying doses (administered in corn oil) of a test retinoid for 3 days. The rats were euthanized 24 hours after the last dose.

[4] = Guinea pig osmotic pump toxicity experiment; format: in vivo; conditions: guinea pigs, intraperitoneal osmotic pump, 14 days; for depression of weight gain relative to control: FIG. 8
Description: In another experiment three-week old male Hartley guinea pigs were implanted intraperitonially with osmotic pumps containing 20% DMSO/80 polyethylene glycol (vehicle) or Compound 42 at concentrations of 4.4, 13.3 or 40 mg/ml in vehicle. Based on the initial body weights and known pumping rate, approximate doses of 0, 2, 6, and 18 mg/kg/day doses of Compound 42 are estimated. Body weights and clinical observations were recorded at least every other day for 14 days post-implantation. The guinea pigs were euthanized after 14 days, and the pumps were examined for possible failure.

With `CC(C)(C)c1cc(C(=O)Nc2ccc(C(=O)O)c(F)c2)cc(C(C)(C)C)n1` [Compound 42] the Kd (RXRΓ) was greater than 1000 nM, the RPE cell proliferation [1] was “dose dependent decrease in RPE cell proliferation” and the IC50 [2] was 0.065 µg/mL (≈ 0.175 µM). The mucocutaneous toxicity ([3]; rats, 10, 30 and 90 μmol/kg/day for 3 days) was “significant mucocutaneous toxicity was not observed”, the “weight loss compared to control” value ([3]; rats, daily doses up to 90 μmol/kg/day in corn oil for 3 days, FIG. 6, FIG. 7) was “virtually no weight loss, as compared to the control, except in a very high dose (90 μmol/kg/day)” and the mucocutaneous toxicity ([4]; any dose (2, 6, 18 mg/kg/day)) was “no signs of mucocutaneous toxicity”. For the same compound, the “depression of weight gain relative to control” value ([4]; high dose (18 mg/kg/day)) was “Significant depression of weight gain” and the “depression of weight gain relative to control” value ([4]; lower and middle doses (approx. 2 and 6 mg/kg/day)) was “no, or only statistically insignificant depression of weight gain”.
